Reference: US4650790A, “Drug combinations having synergistic effect” (Patentbureau Danubia, priority 1984, dated 1987)
Counter-ions that a name gives are not always drawn. Like-named read-outs stand apart in the source and are kept apart here.

How the values were obtained:
[1] = tested on: E. coli (Swine); experiment: Microbiological assay, MIC and MBC, E. coli (Swine); type: cell-based; conditions: combinations 1:1 by weight
[2] = tested on: some Gram positive bacteria, Mycoplasma and the most important Treponema; conditions: cited from earlier work
[3] = tested on: Treponema hyodysenteriae; conditions: orally applied; swine dysentery; British patent specification No. 2,072,012; cited from earlier work
[4] = tested on: Mycoplasma hyopneumoniae; conditions: orally applied; enzootic pneumonia; Taylor, IPVS Congress 1982; cited from earlier work
[5] = tested on: Pseudomonas strains of mastitic origin; conditions: cited from earlier work
[6] = tested on: Salmonella typhi-murium; experiment: Microbiological assay, MIC and MBC, Salmonella typhi-murium; type: cell-based; conditions: combinations 1:1 by weight
[7] = in vivo; cited from earlier work
[8] = tested on: E. coli (Calf); experiment: Microbiological assay, MIC and MBC, E. coli (Calf); conditions: combinations 1:1 by weight
[9] = tested on: Pasteurella multocida; experiment: Microbiological assay, MIC and MBC, Pasteurella multocida; conditions: combinations 1:1 by weight
[10] = tested on: Staphylococcus aureus; experiment: Microbiological assay, minimal inhibiting (MIC) and minimal bactericide (MBC) concentrations, Staphylococcus aureus; conditions: combinations 1:1 by weight
[11] = Escherichia coli, read-out: MBC
[12] = Escherichia coli, read-out: MIC

NC[C@H]1O[C@H](O[C@H]2[C@H](O)[C@@H](O[C@H]3O[C@H](CO)[C@@H](O)[C@H](N)[C@H]3O)[C@H](N)C[C@@H]2N)[C@H](N)C[C@@H]1O [Tobramycin]
MBC [1, 11]: 5 µg/mL | MIC [1, 12]: 1 µg/mL

C=C[C@]1(C)C[C@@H](OC(=O)CSCCN(CC)CC)[C@]2(C)[C@H](C)CC[C@]3(CCC(=O)[C@H]32)[C@@H](C)[C@@H]1O [Tiamulin, 14-desoxy-14-[(2-diethyl-amino-ethyl)-mercapto-acetoxy]-mutilin hydrogen fumarate]
MBC [1, 11]: 100 µg/mL | MIC [1, 12]: 50 µg/mL | effectiveness against some Gram positive bacteria, Mycoplasma and Treponema [2]: effective against some Gram positive bacteria, Mycoplasma and the most important Treponema | effectiveness against Treponema hyodysenteriae [3]: extremely effective | effectiveness against Mycoplasma hyopneumoniae [4]: extremely effective

[H]/N=C(/N)N[C@H]1[C@H](O)[C@@H](O)[C@H](O[C@@H]2O[C@@H](C)[C@](O)(C=O)[C@H]2O[C@@H]2O[C@@H](CO)[C@H](O)[C@@H](O)[C@@H]2NC)[C@@H](N/C(N)=N\[H])[C@@H]1O [Streptomycin]
MBC [1, 11]: > 200 µg/mL | MIC [1, 12]: 100 µg/mL

CN[C@@H]1[C@@H](O[C@H]2O[C@H](CO)[C@@H](N)[C@H](O)[C@H]2O)OC2C[C@@H](N)[C@@H](O[C@H]3[C@H](O)[C@@H](O)[C@H](N)C[C@@H]3N)OC2[C@@H]1O (stereo partly shown) [Apramycin]
MBC [1, 11]: 25 µg/mL | MIC [1, 12]: 25 µg/mL | effect against Pseudomonas strains of mastitic origin [5]: particularly strong effect

NC[C@H]1O[C@H](O[C@H]2[C@H](O)[C@@H](O[C@H]3O[C@H](CO)[C@@H](O)[C@H](N)[C@H]3O)[C@H](N)C[C@@H]2N)[C@H](O)[C@@H](O)[C@@H]1O [Kanamycin]
MBC [1, 11]: 25 µg/mL | MIC [1, 12]: 10 µg/mL | MBC ([6]; Salmonella enterica, read-out: MBC): 50 µg/mL | MIC ([6]; Salmonella enterica, read-out: MIC): 25 µg/mL

NC[C@@H]1O[C@H](O[C@H]2[C@@H](O)[C@H](O[C@@H]3[C@@H](O)[C@H](N)C[C@H](N)[C@H]3O[C@H]3O[C@H](CN)[C@@H](O)[C@H](O)[C@H]3N)O[C@@H]2CO)[C@H](N)[C@@H](O)[C@@H]1O [Neomycin]
MBC [1]: 10 µg/mL | MIC [1]: 5 µg/mL | MBC [6]: 25 µg/mL | MIC [6]: 10 µg/mL | nephrotoxic properties [7]: may cause azotaemia and oliguria | MBC [8]: > 200 µg/mL | MIC [8]: > 200 µg/mL | MBC [9]: 5 µg/mL | MIC [9]: 1 µg/mL | MBC [10]: 25 µg/mL | MIC [10]: 10 µg/mL

Gentamycin
MBC [1]: 5 µg/mL | MIC [1]: 5 µg/mL | MBC [6]: 5 µg/mL | MIC [6]: 5 µg/mL | MBC [8]: 5 µg/mL | MIC [8]: 5 µg/mL | MBC [9]: 1 µg/mL | MIC [9]: < 0.5 µg/mL | MBC [10]: 5 µg/mL | MIC [10]: 0.5 µg/mL
